pEC50, pIC50: −log10 of the molar value. Where two headings read alike, the source gives them in different places.
Columns and labels:
[1] = target: purified human IDO protein (Homo sapiens, UniProt P14902); assay: Enzymatic IDO assay (kynurenine production, absorbance 480 nm); conditions: enzymatic activity
human IDO = human IDO (Homo sapiens, UniProt P14902); assay: Cell based IDO/kynurenine assay in IDO-293-T-Rex cells; conditions: kynurenine production, read-out: hIDO EC50
Protocol: 293-T-REx™ cells (Invitrogen) constitutively express a tet operator binding repressor protein and are maintained in DMEM, 10% FBS, 1× Penicillin+Streptomycin, 2 mM L-glutamine, 5 μg/mL blasticidin at 37° C. with a 5% CO2 in air atmosphere and typically split prior to confluency. Cells were passed by splitting the culture 1/10—by removing media by aspiration, washing 1× with PBS, incubating with 0.25% trypsin/EDTA until the cells detach, disbursing the cells in fresh growth media, and plating at 1/10 dilutions in fresh growth media. For long term cryopreservation, cells are detached from the plate as described above, collected by centrifugation, resuspended in freeze medium (growth medium, 10% DMSO), stored in 1.8 mL cyropreservation vials (˜2−5×10^6 cells per vial), in liquid nitrogen vapor storage tanks.
IDOl-expressing 293-T-Rex™ cell lines were generated by stable transfection of plasmid pcDNA-tetO-IDO expressing human IDO or murine IDO under the control of the doxycycline-inducible CMV-tet promoter. Transfected cells were selected in DBZ medium (DMEM, 10% FBS, 1× Penicillin+Streptomycin, 2 mM L-glutamine, 5 μg/mL blasticidin and 25 μg/ml Zeocin) at 37° C. with a 5% CO2 in air atmosphere. Individual clones were isolated by limiting dilution cloning from these populations.
[…]. The cells incubated in Neutral medium serve as negative control of the assay. The cells incubated in Induction medium and without inhibitor serve as the positive control of the assay. The incubation is carried out for 16 h at 37° C. in a cell culture incubator. 200 μL of medium are transferred to U-bottom polypropylene 96-well plates containing 25 μL of 30% TCA, incubated 30 minutes at 60° C. and centrifuged at 3400 g for 5 minutes. 150 μL of the clear supernatant is transferred to a polystyrene 96-well plate containing 50 μL of 4% (w/v) of p-dimethylaminobenzaldehyde in acetic acid, incubated for 10 min. Kynurenine concentration is determined by measuring the absorbance at 480 nm.
The conditions of the assay were as described in the examples.

[2] = hIDO IC50, recombinant human IDO, values reported in ranges
[3] = 293T cell line stably expressing human IDO, values reported in ranges
[4] = read-out: hIDO IC50, recombinant human IDO, values reported in ranges
[5] = hIDO IC50, Table 15, recombinant human IDO
[6] = Table 15, 293T cells expressing human IDO

Sequence of human IDO (P14902 whole entry): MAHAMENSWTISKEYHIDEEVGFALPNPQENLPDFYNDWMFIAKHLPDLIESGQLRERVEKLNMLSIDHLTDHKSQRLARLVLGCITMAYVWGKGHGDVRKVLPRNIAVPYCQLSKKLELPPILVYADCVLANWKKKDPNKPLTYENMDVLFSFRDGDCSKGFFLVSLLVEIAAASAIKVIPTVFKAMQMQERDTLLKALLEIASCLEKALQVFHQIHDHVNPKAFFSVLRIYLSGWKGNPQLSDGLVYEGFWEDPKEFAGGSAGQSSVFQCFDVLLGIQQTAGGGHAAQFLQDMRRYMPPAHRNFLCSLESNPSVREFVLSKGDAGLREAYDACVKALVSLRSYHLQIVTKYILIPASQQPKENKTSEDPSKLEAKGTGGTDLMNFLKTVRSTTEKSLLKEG
Sequence of purified human IDO protein (P14902 whole entry P110S/E119G): as the sequence (P14902 whole entry) above, with P110S, E119G counted along it

SMILES	pIC50 [1, 2]	pEC50 (human IDO; [3])	pIC50 [1, 4]	pIC50 [1, 5]	pEC50 (human IDO; [6])
S=C(NCCc1c[nH]c2ccccc12)SCc1cc2c(cc1Br)OCO2 [compound 65, (6-Bromobenzo[d][1,3]dioxol-5-yl)methyl 2-(1H-indol-3-yl)ethylcarbamodithioate]	4.00 to 4.70	4.00 to 4.70			
S=C(NCCc1c[nH]c2ccccc12)SCCc1cccc(Cl)c1 [compound 8, 3-Chlorophenethyl 2-(1H-indol-3-yl)ethylcarbamodithioate]	3.00 to 4.00	3.00 to 4.00			
S=C(NCCc1c[nH]c2ccccc12)SCCc1cccc(Br)c1 [compound 7, 3-Bromophenethyl 2-(1H-indol-3-yl)ethylcarbamodithioate]	3.00 to 4.00	3.00 to 4.00			
S=C(NCCc1c[nH]c2ccccc12)SCCc1ccccc1Cl [compound 21, 2-Chlorophenethyl 2-(1H-indol-3-yl)ethylcarbamodithioate]	3.00 to 4.00	3.00 to 4.00			
O=C1CSC(=S)N1Cc1ccc2ccccc2c1 [compound 830, 3-(Naphthalen-2-ylmethyl)-2-thioxothiazolidin-4-one]	4.00 to 4.70	4.00 to 4.70			
Nc1ccc2[nH]cc(CCC(=O)O)c2c1 [compound 325, 3-(5-amino-1H-indol-3-yl)propanoic acid]	3.00 to 4.00	2.00 to 3.00			
CSC(=S)NCCc1c[nH]c2ccc(Cl)cc12 [compound 32]		4.00 to 4.70	3.00 to 4.00		
COc1cccc(CCSC(=S)NCCc2c[nH]c3ccccc23)c1 [compound 10, 3-methoxyphenethyl 2-(1H-indol-3-yl)ethylcarbamodithioate]	3.00 to 4.00	3.00 to 4.00			
O=C1C=C(O)C(=O)c2nc(O)ccc21 [compound 320, 2,7-dihydroxyquinoline-5,8-dione]	> 4.70	2.00 to 3.00			
NCC(ON)c1ccccc1 (centres unmarked) [compound 1875, 2-(aminooxy)-2-phenylethanamine]				4.00 to 5.00	< 3.00
CC(=O)N1C(=O)/C(=C2/SC(=S)NC2=O)c2ccccc21 [compound 149]	3.00 to 4.00	4.00 to 4.70			
S=C(NCCc1c[nH]c2ccccc12)SCCc1c[nH]c2ccccc12 [compound 30, 2-(1H-Indol-3-yl)ethyl 2-(1H-indol-3-yl)ethylcarbamodithioate]	3.00 to 4.00	4.00 to 4.70			
CSC(=S)NCCc1c[nH]c2cc(C(F)(F)F)cc(C(F)(F)F)c12 [compound 44]		2.00 to 3.00	3.00 to 4.00		
COc1ccc(CCSC(=S)NCCc2c[nH]c3ccccc23)cc1 [compound 2, 4-Methoxyphenethyl 2-(1H-indol-3-yl)ethylcarbamodithioate]	3.00 to 4.00	3.00 to 4.00			
NOCc1cc(Cl)ccc1-c1ccsc1 [compound 1932, O-(5-chloro-2-(thiophen-3-yl)benzyl)hydroxylamine]				> 5.00	> 5.00
Cn1[nH]c(=O)c(=O)nc1SCc1ccc2ccccc2c1 [compound 682, 2-Methyl-3-(naphthalen-2-ylmethylthio)-1,2-dihydro-1,2,4-triazine-5,6-dione]	3.00 to 4.00	3.00 to 4.00			
NOC(COCc1ccccc1)c1ccccc1 (centres unmarked) [compound 1933, O-(2-(benzyloxy)-1-phenylethyl)hydroxylamine]				> 5.00	> 5.00
NOCc1cc(Cl)ccc1-c1cccs1 [compound 1931, O-(5-chloro-2-(thiophen-2-yl)benzyl)hydroxylamine]				> 5.00	> 5.00
C=CCOc1ccc(CC)c(OCC=C)c1 [compound 252, 2,4-bis(allyloxy)-1-ethylbenzene]	3.00 to 4.00	4.00 to 4.70			
S=C(NCCc1c[nH]c2ccccc12)SCCc1ccc2c(c1)OCCO2 [compound 53, 2-(2,3-Dihydrobenzo[b][1,4]dioxin-6-yl)ethyl 2-(1H-indol-3-yl)ethyl-carbamodithioate]	3.00 to 4.00	4.00 to 4.70			

SMILES	pIC50 [1, 2]	pEC50 (human IDO; [3])	pIC50 [1, 4]	pIC50 [1, 5]	pEC50 (human IDO; [6])
S=C(NCCC1CCc2ccccc2O1)SCc1ccc2ccccc2c1 (centres unmarked) [compound 63, naphthalen-2-ylmethyl 2-(chroman-2-yl)ethylcarbamodithioate]	4.00 to 4.70	4.00 to 4.70			
O=C(Cc1csc(=S)[nH]1)NCc1ccc2ccccc2c1 [compound 701, N-(Naphthalen-2-ylmethyl)-2-(2-thioxo-2,3-dihydrothiazol-4-yl)acetamide]	3.00 to 4.00	3.00 to 4.00			
Oc1cccc2ccccc12 [compound 168, naphthalen-1-ol]	3.00 to 4.00	3.00 to 4.00			
CSC(=S)NCCc1cccc(Cl)c1 [compound 14]		3.00 to 4.00	3.00 to 4.00		
CN(C)c1ccc(/C=C2\CSC(=S)NC2=O)cc1 [compound 150, (Z)-5-(4-(dimethylamino)benzylidene)-2-thioxo-1,3-thiazinan-4-one]	3.00 to 4.00	3.00 to 4.00			
NC(CSC(=S)NCc1ccccc1)C(=O)O (centres unmarked) [compound 138, 2-amino-3-(benzylcarbamothioylthio)-propanoic acid]	3.00 to 4.00	4.00 to 4.70			
Nc1cc(S(=O)O)c2cccnc2c1O [compound 309, 7-amino-8-hydroxyquinoline-5-sulfinic acid]	4.00 to 4.70	3.00 to 4.00			
S=C(NCCc1noc2ccccc12)SCc1ccc2ccccc2c1 [compound 58]		4.00 to 4.70	3.00 to 4.00		
Oc1cc(O)nc(SCc2ccccc2)n1 [compound 222, 2-(benzylthio)pyrimidine-4,6-diol]	3.00 to 4.00	4.00 to 4.70			
S=C(NC1CSc2ccccc2C1)SCc1ccc2ccccc2c1 (centres unmarked) [compound 64, naphhalen-2-ylmethyl thiochroman-3-ylcarbamodithioate]		4.00 to 4.70	3.00 to 4.00		
O=C1C=Cc2ccccc2C1=O [compound 167, naphthalene-1,2-dione]	> 4.70	4.00 to 4.70			
O=C(O)CC(=O)c1ccc(F)cc1 [compound 313, 3-(4-fluorophenyl)-3-oxopropanoic acid]	3.00 to 4.00	3.00 to 4.00			
Cc1ccc(C)c(C(C)CC(=O)O)c1 (centres unmarked) [compound 261, 3-(2,5-dimethylphenyl)butanoic acid]	3.00 to 4.00	4.00 to 4.70			
S=C(NCCc1c[nH]c2ccccc12)SCCc1ccccc1 [compound 1, Phenethyl 2-(1H-indol-3-yl)ethylcarbamodithioate]	3.00 to 4.00	3.00 to 4.00			
O=C1C(CSC(=S)Nc2ccccc2)NC(=S)N1c1ccccc1 (centres unmarked) [compound 151, (5-oxo-1-phenyl-2-thioxoimidazolidin-4-yl)methyl phenylcarbamodithioate]	3.00 to 4.00	3.00 to 4.00			
Nc1ccccc1NC(=O)CCCc1c[nH]c2ccccc12 [compound 588, N-(2-aminophenyl)-4-(1H-indol-3-yl)butanamide]	3.00 to 4.00	3.00 to 4.00			
Oc1ccccc1C(=S)NCc1ccccc1 [compound 656, N-Benzyl-2-hydroxybenzothioamide]	3.00 to 4.00	4.00 to 4.70			
Nc1ccc2[nH]cc(C(=O)O)c2c1 [compound 352, 5-amino-1H-indole-3-carboxylic acid]	3.00 to 4.00	2.00 to 3.00			
O=C(Cc1csc(=S)[nH]1)NCc1c[nH]c2ccccc12 [compound 561, N-((1H-indol-3-yl)methyl)-2-(2-thioxo-2,3-dihydrothiazol-4-yl)acetamide]	3.00 to 4.00	4.00 to 4.70			
O=C1CSC(=S)N1Cc1ccccc1 [compound 79, 3-Benzyl-2-thioxothiazolidin-4-one]	4.00 to 4.70	> 4.70			
